PubChem BioAssay (NCI)
“And” between values parts separate entries of the source, which are not always exact repeats. Equal values may be shown once.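 Each compound was tested at five concentrations against cells in 96-well plates for 48 hours. The concentration for 50% growth inhibition is given as GI50. The concentration for full growth arrest is given as TGI.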

system: NCI/ADR-RES ovarian; test: inhibition of tumour cell growth, NCI panel, 48 h

Structure (SMILES) | TGI
Cc1cc(Nc2ccc(S(=O)(=O)O)c3cc(S(=O)(=O)O)cc(S(=O)(=O)O)c23)c2ccccc2n1 | > 100 µM
COC(=O)[C@@H](O)[C@](O)(CCC(C)C)C(=O)O[C@@H]1C(OC)=C[C@]23CCCN2CCc2cc4c(cc2[C@H]13)OCO4 | 71.4 µM
CC1(C)O[C@H]2OC(CO[Si](C)(C)C(C)(C)C)C(N=[N+]=[N-])[C@H]2O1 (some centres undefined) | 37.7 µM
COc1ccc2cc1Oc1ccc(cc1)C[C@H]1c3cc(c(OC)cc3CCN1C)Oc1c(O)c(OC)cc3c1[C@H](C2)N(C)CC3 | 77.1 µM
Oc1ccc(Cc2cc(Cc3ccc(O)cc3)cc(Cc3ccc(O)cc3)c2)cc1 | > 50 µM
Nc1ncnc2c1[nH]c(=O)n2-c1ccccc1 | > 100 µM
N[C@@H](CCC(=O)NCP(=O)(O)O)C(=O)O | > 100 µM
CCC(=O)NC(Nc1cc(C)on1)(C(F)(F)F)C(F)(F)F | > 100 µM
Cc1ccccc1OC(C)C(=O)NN1C(=O)CSC1c1ccccc1 (centres undefined) | > 100 µM
O=C1C=C[C@@H](COC2OC(CO)C(O)C(O)C2O)O1 (some centres undefined) | 28 µM and 34.8 µM
Nc1nc(-c2ccccc2)nc2oc(-c3cccs3)nc12 | > 100 µM
O=c1[nH]c(=S)[nH]c2c1C(c1ccc([N+](=O)[O-])cc1)c1c([nH]c(=S)[nH]c1=O)O2 | > 100 µM
Cn1c(=O)c2c(nc3n2CC(C(=O)O)N3)n(C)c1=O (centres undefined) | > 100 µM
O=C(OCc1ccccc1)N1CCNCCN(C(=O)OCc2ccccc2)CCNCC1 | > 100 µM
COc1ccc(-n2c(C)nc3ccc(NC(=S)Nc4ccccc4)cc3c2=O)cc1 | > 100 µM

system: TK-10 renal; test: inhibition of tumour cell growth, NCI panel, 48 h

Structure (SMILES) | TGI
COc1cccc(Nc2nc(-c3cccs3)nc3cc(OC)c(OC)cc23)c1 | > 100 µM
Nn1c(Nc2ccc(S(=O)(=O)Nc3ncccn3)cc2)nnc(/C=C/c2c(O)ccc3ccccc23)c1=O | 75.8 µM
Cc1cc(Nc2ccc(S(=O)(=O)O)c3cc(S(=O)(=O)O)cc(S(=O)(=O)O)c23)c2ccccc2n1 | > 100 µM
CC1(C)O[C@H]2OC(CO[Si](C)(C)C(C)(C)C)C(N=[N+]=[N-])[C@H]2O1 (some centres undefined) | 36.7 µM
Oc1ccc(Cc2cc(Cc3ccc(O)cc3)cc(Cc3ccc(O)cc3)c2)cc1 | > 50 µM
Nc1ncnc2c1[nH]c(=O)n2-c1ccccc1 | > 100 µM
N[C@@H](CCC(=O)NCP(=O)(O)O)C(=O)O | > 100 µM
CCC(=O)NC(Nc1cc(C)on1)(C(F)(F)F)C(F)(F)F | > 100 µM
Cc1ccccc1OC(C)C(=O)NN1C(=O)CSC1c1ccccc1 (centres undefined) | > 100 µM
Nc1nc(-c2ccccc2)nc2oc(-c3cccs3)nc12 | > 100 µM
O=c1[nH]c(=S)[nH]c2c1C(c1ccc([N+](=O)[O-])cc1)c1c([nH]c(=S)[nH]c1=O)O2 | > 100 µM
Cn1c(=O)c2c(nc3n2CC(C(=O)O)N3)n(C)c1=O (centres undefined) | > 100 µM
O=C(OCc1ccccc1)N1CCNCCN(C(=O)OCc2ccccc2)CCNCC1 | > 100 µM
COc1ccc(-n2c(C)nc3ccc(NC(=S)Nc4ccccc4)cc3c2=O)cc1 | > 100 µM

system: EKVX NSCLC; test: inhibition of tumour cell growth, NCI panel, 48 h

Structure (SMILES) | TGI
COc1cccc(Nc2nc(-c3cccs3)nc3cc(OC)c(OC)cc23)c1 | > 100 µM
Nn1c(Nc2ccc(S(=O)(=O)Nc3ncccn3)cc2)nnc(/C=C/c2c(O)ccc3ccccc23)c1=O | 69.6 µM
COc1ccc2[nH]cc(/C=C(/C)c3ccncc3)c2c1 | > 100 µM
Cc1cc(Nc2ccc(S(=O)(=O)O)c3cc(S(=O)(=O)O)cc(S(=O)(=O)O)c23)c2ccccc2n1 | > 100 µM
COC(=O)[C@@H](O)[C@](O)(CCC(C)C)C(=O)O[C@@H]1C(OC)=C[C@]23CCCN2CCc2cc4c(cc2[C@H]13)OCO4 | 6.09 µM
CC1(C)O[C@H]2OC(CO[Si](C)(C)C(C)(C)C)C(N=[N+]=[N-])[C@H]2O1 (some centres undefined) | 39.3 µM
COc1ccc2cc1Oc1ccc(cc1)C[C@H]1c3cc(c(OC)cc3CCN1C)Oc1c(O)c(OC)cc3c1[C@H](C2)N(C)CC3 | 8.53 µM
Oc1ccc(Cc2cc(Cc3ccc(O)cc3)cc(Cc3ccc(O)cc3)c2)cc1 | > 50 µM
Nc1ncnc2c1[nH]c(=O)n2-c1ccccc1 | > 100 µM
N[C@@H](CCC(=O)NCP(=O)(O)O)C(=O)O | > 100 µM
CCC(=O)NC(Nc1cc(C)on1)(C(F)(F)F)C(F)(F)F | > 100 µM
Cc1ccccc1OC(C)C(=O)NN1C(=O)CSC1c1ccccc1 (centres undefined) | > 100 µM
O=C1C=C[C@@H](COC2OC(CO)C(O)C(O)C2O)O1 (some centres undefined) | 39.1 µM
Nc1nc(-c2ccccc2)nc2oc(-c3cccs3)nc12 | > 100 µM
O=c1[nH]c(=S)[nH]c2c1C(c1ccc([N+](=O)[O-])cc1)c1c([nH]c(=S)[nH]c1=O)O2 | > 100 µM
Cn1c(=O)c2c(nc3n2CC(C(=O)O)N3)n(C)c1=O (centres undefined) | > 100 µM
O=C(OCc1ccccc1)N1CCNCCN(C(=O)OCc2ccccc2)CCNCC1 | > 100 µM
COc1ccc(-n2c(C)nc3ccc(NC(=S)Nc4ccccc4)cc3c2=O)cc1 | > 100 µM

system: SF-295 CNS; test: inhibition of tumour cell growth, NCI panel, 48 h

Structure (SMILES) | TGI | GI50
COc1cccc(Nc2nc(-c3cccs3)nc3cc(OC)c(OC)cc23)c1 | 53.1 µM | –
COc1ccc2[nH]cc(/C=C(/C)c3ccncc3)c2c1 | 12.1 µM and 32.8 µM | 3.63 µM
Cc1cc(Nc2ccc(S(=O)(=O)O)c3cc(S(=O)(=O)O)cc(S(=O)(=O)O)c23)c2ccccc2n1 | > 100 µM | –
COC(=O)[C@@H](O)[C@](O)(CCC(C)C)C(=O)O[C@@H]1C(OC)=C[C@]23CCCN2CCc2cc4c(cc2[C@H]13)OCO4 | 5.68 µM | –
CC1(C)O[C@H]2OC(CO[Si](C)(C)C(C)(C)C)C(N=[N+]=[N-])[C@H]2O1 (some centres undefined) | 24.9 µM | –
COc1ccc2cc1Oc1ccc(cc1)C[C@H]1c3cc(c(OC)cc3CCN1C)Oc1c(O)c(OC)cc3c1[C@H](C2)N(C)CC3 | 39.7 µM | –
Oc1ccc(Cc2cc(Cc3ccc(O)cc3)cc(Cc3ccc(O)cc3)c2)cc1 | > 50 µM | –
Nc1ncnc2c1[nH]c(=O)n2-c1ccccc1 | > 100 µM | –
N[C@@H](CCC(=O)NCP(=O)(O)O)C(=O)O | > 100 µM | –
Cc1ccccc1OC(C)C(=O)NN1C(=O)CSC1c1ccccc1 (centres undefined) | > 100 µM | –
O=C1C=C[C@@H](COC2OC(CO)C(O)C(O)C2O)O1 (some centres undefined) | 41.8 µM and 45 µM | –
Nc1nc(-c2ccccc2)nc2oc(-c3cccs3)nc12 | > 100 µM | –
O=c1[nH]c(=S)[nH]c2c1C(c1ccc([N+](=O)[O-])cc1)c1c([nH]c(=S)[nH]c1=O)O2 | > 100 µM | –
Cn1c(=O)c2c(nc3n2CC(C(=O)O)N3)n(C)c1=O (centres undefined) | > 100 µM | –
O=C(OCc1ccccc1)N1CCNCCN(C(=O)OCc2ccccc2)CCNCC1 | 64.3 µM | –
COc1ccc(-n2c(C)nc3ccc(NC(=S)Nc4ccccc4)cc3c2=O)cc1 | > 100 µM | –

system: SN12C renal; test: inhibition of tumour cell growth, NCI panel, 48 h

Structure (SMILES) | TGI | GI50
COc1cccc(Nc2nc(-c3cccs3)nc3cc(OC)c(OC)cc23)c1 | 53.8 µM | –
Nn1c(Nc2ccc(S(=O)(=O)Nc3ncccn3)cc2)nnc(/C=C/c2c(O)ccc3ccccc23)c1=O | > 100 µM | –
COc1ccc2[nH]cc(/C=C(/C)c3ccncc3)c2c1 | > 100 µM | 7.58 µM
Cc1cc(Nc2ccc(S(=O)(=O)O)c3cc(S(=O)(=O)O)cc(S(=O)(=O)O)c23)c2ccccc2n1 | > 100 µM | –
COC(=O)[C@@H](O)[C@](O)(CCC(C)C)C(=O)O[C@@H]1C(OC)=C[C@]23CCCN2CCc2cc4c(cc2[C@H]13)OCO4 | 10.3 µM | –
CC1(C)O[C@H]2OC(CO[Si](C)(C)C(C)(C)C)C(N=[N+]=[N-])[C@H]2O1 (some centres undefined) | 36.2 µM | –
COc1ccc2cc1Oc1ccc(cc1)C[C@H]1c3cc(c(OC)cc3CCN1C)Oc1c(O)c(OC)cc3c1[C@H](C2)N(C)CC3 | 88.8 µM | –
Oc1ccc(Cc2cc(Cc3ccc(O)cc3)cc(Cc3ccc(O)cc3)c2)cc1 | > 50 µM | –
Nc1ncnc2c1[nH]c(=O)n2-c1ccccc1 | > 100 µM | –
N[C@@H](CCC(=O)NCP(=O)(O)O)C(=O)O | > 100 µM | –
CCC(=O)NC(Nc1cc(C)on1)(C(F)(F)F)C(F)(F)F | > 100 µM | –
Cc1ccccc1OC(C)C(=O)NN1C(=O)CSC1c1ccccc1 (centres undefined) | > 100 µM | –
O=C1C=C[C@@H](COC2OC(CO)C(O)C(O)C2O)O1 (some centres undefined) | 24.4 µM and 19 µM | 8.38 µM
Nc1nc(-c2ccccc2)nc2oc(-c3cccs3)nc12 | > 100 µM | –
O=c1[nH]c(=S)[nH]c2c1C(c1ccc([N+](=O)[O-])cc1)c1c([nH]c(=S)[nH]c1=O)O2 | > 100 µM | –
Cn1c(=O)c2c(nc3n2CC(C(=O)O)N3)n(C)c1=O (centres undefined) | > 100 µM | –
O=C(OCc1ccccc1)N1CCNCCN(C(=O)OCc2ccccc2)CCNCC1 | > 100 µM | –
COc1ccc(-n2c(C)nc3ccc(NC(=S)Nc4ccccc4)cc3c2=O)cc1 | > 100 µM | –
